Assay results taken from publication PMC3665241, “Scaffold-Focused Virtual Screening: Prospective Application to the Discovery of TTK Inhibitors” (Journal of Chemical Information and Modeling, 2013).

What was measured:
[1] = target: T1, GST-tagged recombinant human full-length TTK protein kinase (Homo sapiens, UniProt P33981); test: TTK mobility shift microfluidics assay, single-concentration percent inhibition screen; format: biochemical; settings: 12.5 nM TTK, 10 μM ATP, mean of duplicate ± SD
T1 construct: GST-tagged recombinant human full-length TTK protein kinase; purchased Invitrogen (Life Technologies Ltd., Paisley, U.K.)
T1 sequence (P33981 1-857): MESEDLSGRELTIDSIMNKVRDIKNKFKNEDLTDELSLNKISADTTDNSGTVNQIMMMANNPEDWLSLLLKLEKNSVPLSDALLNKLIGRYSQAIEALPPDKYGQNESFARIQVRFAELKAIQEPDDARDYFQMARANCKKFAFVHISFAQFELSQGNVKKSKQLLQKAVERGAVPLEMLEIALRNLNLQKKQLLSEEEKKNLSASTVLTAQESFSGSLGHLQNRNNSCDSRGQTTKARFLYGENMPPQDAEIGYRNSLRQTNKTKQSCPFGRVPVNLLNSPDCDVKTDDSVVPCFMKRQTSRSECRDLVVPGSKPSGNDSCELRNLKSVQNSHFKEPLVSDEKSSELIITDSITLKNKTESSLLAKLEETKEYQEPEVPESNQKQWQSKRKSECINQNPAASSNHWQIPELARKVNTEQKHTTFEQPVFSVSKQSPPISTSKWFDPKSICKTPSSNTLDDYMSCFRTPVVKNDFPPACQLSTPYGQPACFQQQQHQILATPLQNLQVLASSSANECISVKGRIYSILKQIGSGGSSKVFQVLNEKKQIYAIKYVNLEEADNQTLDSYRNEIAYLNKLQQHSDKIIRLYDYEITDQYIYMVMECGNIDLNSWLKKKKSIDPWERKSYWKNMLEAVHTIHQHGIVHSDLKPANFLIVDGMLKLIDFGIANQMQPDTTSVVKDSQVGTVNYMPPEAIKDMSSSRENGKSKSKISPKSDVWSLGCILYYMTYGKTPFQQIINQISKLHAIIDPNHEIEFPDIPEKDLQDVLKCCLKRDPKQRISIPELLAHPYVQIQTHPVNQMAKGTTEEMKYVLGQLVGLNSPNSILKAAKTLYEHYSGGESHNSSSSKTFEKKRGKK
Procedure: The TTK kinase activity was measured in a mobility shift microfluidics assay with the Caliper LabChip EZReader II (Caliper Life Sciences, Hopkinton, MA, U.S.A.). For the initial percent inhibition compound screen, all compounds were tested at 40 μM, and fragment-like compounds (MW < 300 Da) were also tested at 400 μM. A 2.14 μM stock of GST-tagged recombinant human full-length TTK protein kinase from Invitrogen (Invitrogen, Life Technologies Ltd., Paisley, U.K.) and custom synthesized peptide from Pepceuticals (Pepceuticals Ltd., Enderby, U.K.) with sequence 5-FAM-[…]-amide were used. […] For every 10 mL of stock buffer, one Roche EDTA free complete mini-protease inhibitor cocktail tablet (Roche, Basel, Switzerland) was added. TTK was used at a final concentration of 12.5 nM. The assay plate was sealed and incubated at room temperature for 60 min. The assay was stopped by addition of stop buffer which contained 100 mM HEPES (pH 7.3), 20 mM EDTA, and 0.05% (v/v) Brij-35. The assay plate was then analyzed using the EZReader II. Z′ for compounds at 40 μM was 0.48, and Z′ for compounds at 400 μM was 0.61.

[2] = target: T1, GST-tagged recombinant human full-length TTK protein kinase; test: TTK mobility shift microfluidics assay, IC50 determination (3 nM TTK); format: biochemical
[3] = target: T2, TTK kinase domain (residues 519–808) (Homo sapiens, UniProt P33981); test: Soaking of apo TTK kinase domain crystals with inhibitor, X-ray crystallography; format: binding; settings: crystals soaked with 10–50 mM compound for 24 h
T2 construct: TTK kinase domain (residues 519–808); inferred from Ni-NTA purification with imidazole elution; made in house; host or cells: E. coli BL21 AI
T2 sequence (P33981 519-808): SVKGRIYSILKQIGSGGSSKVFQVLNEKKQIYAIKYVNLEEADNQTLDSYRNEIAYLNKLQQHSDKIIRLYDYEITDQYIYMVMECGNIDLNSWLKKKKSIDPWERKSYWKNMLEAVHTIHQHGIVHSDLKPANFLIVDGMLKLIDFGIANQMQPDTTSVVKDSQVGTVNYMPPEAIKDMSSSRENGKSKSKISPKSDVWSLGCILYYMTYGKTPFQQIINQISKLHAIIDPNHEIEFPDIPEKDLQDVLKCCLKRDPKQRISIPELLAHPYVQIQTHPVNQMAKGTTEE
Excerpt: In recognition of the desirability of protein–ligand crystal structures to educate the efficient follow-up of fragment-like hit matter and our wish to determine the mode of binding of hits identified with the scaffold-focused virtual screen, we sought co-crystal structures of confirmed hits with TTK. To this end, apo crystals of TTK kinase domain were soaked in buffer solution containing the respective inhibitor (2–9). X-ray data were collected for all crystals, and the structures were solved using molecular replacement. We successfully obtained co-crystal structures of TTK with fragment-like hit compounds 3, 4, 5, and 7. […] A summary of crystallographic analysis is presented in Table 4, and the binding modes of compounds 3, 4, 5, and 7 are illustrated in Figure 7 with Fo–Fc electron density omit maps surrounding the ligand shown in green wire-mesh contoured at 3σ. In all four structures, the activation loop of TTK is disordered, possibly due to the presence of a PEG molecule bound to Lys553, a residue which would usually coordinate with Glu571 to help stabilize the activation loop (Lys553 is not shown in Figure 7 for clarity).
TTK was purified and crystallized as described previously.[26] Plasmids for expression of TTK were received from Stefan Knapp, Structural Genomics Consortium, Oxford, U.K. TTK kinase domain (residues 519–808) was expressed in E. coli BL21 AI competent cells (Invitrogen, Life Technologies Ltd., Paisley, U.K.). Cells were cultured in LB media containing kanamycin selection antibiotic and induced with 0.5 mM IPTG and 1g/L L-arabinose at an OD280 of 0.7. Cells were then incubated overnight at 18 °C with shaking at 225 rpm. Cells were harvested and resuspended in lysis buffer containing 50 mM HEPES pH 7.5, 500 mM NaCl, 10 mM imidazole, 5% (v/v) glycerol, lysozyme, and 1 Roche EDTA free complete protease inhibitor cocktail tablet (Roche, Basel, Switzerland) per 3 L of buffer. TTK was purified using Ni–NTA nickel affinity resin and washed in buffer containing 30 mM imidazole. TTK was then eluted from the resin with 250 mM imidazole. Eluate was concentrated using a Vivaspin concentrator with a 30 kDa molecular weight cutoff (GE Healthcare, Chalfont St. Giles, U.K.) and further purified on gel filtration column Superdex 200 16/60 (GE Healthcare, Chalfont St. Giles, U.K.) equilibrated in buffer containing 10 mM HEPES pH 7.5, 150 mM NaCl, 5 mM DTT, and 5 mM EDTA. The sample was concentrated to a final concentration of 8.9 mg/mL, snap frozen on dry ice, and stored at −80 °C until required.
Purified TTK was crystallized at 18 °C using the sitting drop vapor diffusion method with drops composed of 2 μL protein (8.9 mg/mL) and 2 μL reservoir solution placed over 200 μL reservoir solution of H2O/PEG300 (30–45% (v/v)) in 48 well plates. […]

inhibition at 40 µM ([1]; compound at 40 μM, 1% DMSO): 68 ± 1.41%
inhibition at 400 µM ([1]; compound at 400 μM (fragment-like, MW < 300 Da)): 55.5 ± 2.12%
IC50 ([2]; 10% DMSO (asterisk), 3 nM TTK, 10 μM ATP, duplicate on the same plate): 246 µM
LE (ligand efficiency) ([2]; from TTK IC50): 0.25
binding in ATP binding site of soaked TTK crystals (electron density) [3]: not bound
Structure (SMILES): Cc1ccc2[nH]c3c(N4CCCCC4)ncnc3c2c1 [Compound 9]
